# Source: US20230271941A1, “COMPOUNDS AND COMPOSITIONS FOR TREATING CONDITIONS ASSOCIATED WITH STING ACTIVITY” (IFM Due, Inc., priority 2020, published 2023)
# Biological target: T1, hSTING (Homo sapiens, UniProt Q86WV6, G230A/H232R/R293Q/R71H)
# T1 construct: host or cells: THP1-Dual KO-IFNAR2 cells
# Test: STING reporter assay: THP1-Dual KO-IFNAR2 cells stimulated with 2′3′cGAMP, luciferase reporter activity
# Assay type: cell-based
# Conditions: 15 μM 2′3′cGAMP transfected with Lipofectamine 2000, 24 h, luciferase reporter (QUANTI-Luc)
# Procedure: STING pathway activation by the compounds described herein was measured using THP1-Dual™ cells (KO-IFNAR2).
# THP1-Dual™ KO-IFNAR2 Cells (obtained from invivogen) were maintained in RPMI, 10% FCS, 5 ml P/S, 2 mM L-glut, 10 mM Hepes, and 1 mM sodium pyruvate. Compounds were spotted in empty 384 well tissue culture plates (Greiner 781182) by Echo for a final concentration of 0.0017-100 μM. Cells were plated into the TC plates at 40 μL per well, 2×10E6 cells/mL. For activation with STING ligand, 2′3′cGAMP (MW 718.38, obtained from Invivogen), was prepared in Optimem media.
# The following solutions were prepared for each 1×384 plate: • Solution A: 2 mL Optimem with one of the following stimuli: • 60 μL of 10 mM 2′3′cGAMP→150 μM stock • Solution B: 2 mL Optimem with 60 μL Lipofectamine 2000→Incubate 5 min at RT
# 2 mL of solution A and 2 ml Solution B was mixed and incubated for 20 min at room temperature (RT). 20 μL of transfection solution (A+B) was added on top of the plated cells, with a final 2′3′cGAMP concentration of 15 μM. The plates were then centrifuged immediately at 340 g for 1 minute, after which they were incubated at 37° C., 5% CO2, >98% humidity for 24 h. Luciferase reporter activity was then measured. EC50 values were calculated by using standard methods known in the art.
# Luciferase reporter assay: 10 μL of supernatant from the assay was transferred to white 384-plate with flat bottom and squared wells. One pouch of QUANTI-Luc™ Plus was dissolved in 25 mL of water. 100 μL of QLC Stabilizer per 25 mL of QUANTI-Luc™Plus solution was added. 50 μL of QUANTI-Luc™ Plus/QLC solution per well was then added. Luminescence was measured on a Platereader (e.g., Spectramax I3X (Molecular Devices GF3637001)).
# Luciferase reporter activity was then measured. EC50 values were calculated by using standard methods known in the art.
# T1 sequence (Q86WV6 whole entry R71H/G230A/H232R/R293Q): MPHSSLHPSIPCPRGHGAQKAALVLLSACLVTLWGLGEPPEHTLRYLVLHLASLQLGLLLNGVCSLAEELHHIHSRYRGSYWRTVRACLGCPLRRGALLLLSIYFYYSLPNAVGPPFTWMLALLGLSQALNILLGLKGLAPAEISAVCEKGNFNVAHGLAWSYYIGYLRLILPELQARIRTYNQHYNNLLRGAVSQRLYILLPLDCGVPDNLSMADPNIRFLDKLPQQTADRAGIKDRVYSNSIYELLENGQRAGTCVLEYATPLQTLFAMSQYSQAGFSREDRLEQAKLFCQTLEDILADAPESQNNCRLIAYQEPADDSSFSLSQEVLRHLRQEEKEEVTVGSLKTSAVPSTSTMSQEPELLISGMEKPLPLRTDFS
row,Structure (SMILES),EC50
1,"COc1ccc2[nH]cc(NC(=O)c3ccn(Cc4ccc(C(F)(F)F)cc4)n3)c2n1 [Compound 134, N-(5-methoxy-1H-pyrrolo[3,2-b]pyridin-3-yl)-1-(4-(trifluoromethyl)benzyl)-1H-pyrazole-3-carboxamide]",1 to 5 µM
2,"O=C(Nc1c[nH]c2cc(F)c(F)cc12)c1cnn(C2CCCCC2)c1 [Compound 116, 1-cyclohexyl-N-(5,6-difluoro-1H-indol-3-yl)-1H-pyrazole-4-carboxamide]",1 to 5 µM
3,"O=C(Nc1c[nH]c2cc(F)c(F)cc12)c1csc(-c2ccccc2)n1 [Compound 111, N-(5,6-difluoro-1H-indol-3-yl)-2-phenyl-1,3-thiazole-4-carboxamide]",1 to 5 µM
4,"COc1ccc2[nH]cc(NC(=O)c3cnn(Cc4ccc(C(F)(F)F)cc4)c3)c2n1 [Compound 118, N-(5-methoxy-1H-pyrrolo[3,2-b]pyridin-3-yl)-1-(4-(trifluoromethyl)benzyl)-1H-pyrazole-4-carboxamide]",1 to 5 µM
5,"CC(c1ccc(C(F)(F)F)cc1)n1cc(C(=O)Nc2c[nH]c3cc(F)c(F)cc23)cn1 (single isomer, unassigned) [Compound 120, (R or S)-N-(5,6-difluoro-1H-indol-3-yl)-1-(1-(4-(trifluoromethyl)phenyl)ethyl)-1H-pyrazole-4-carboxamide]",0.2 to 1 µM
6,"O=C(Nc1c[nH]c2cc(F)c(F)cc12)c1cnn(CCOc2cccnc2)c1 [Compound 124, N-(5,6-difluoro-1H-indol-3-yl)-1-(2-(pyridin-3-yloxy)ethyl)-1H-pyrazole-4-carboxamide]",5 to 100 µM
7,"O=C(Nc1c[nH]c2cc(F)c(F)cc12)c1ccnn1CCOc1cccnc1 [Compound 127, N-(5,6-difluoro-1H-indol-3-yl)-1-(2-(pyridin-3-yloxy)ethyl)-1H-pyrazole-5-carboxamide]",5 to 100 µM
8,"O=C(Nc1c[nH]c2cc(F)c(F)cc12)c1cc(-c2ccc(Cl)cc2)n[nH]1 [Compound 108, 3-(4-chlorophenyl)-N-(5,6-difluoro-1H-indol-3-yl)-1H-pyrazole-5-carboxamide]",0.2 to 1 µM
9,"O=C(Nc1c[nH]c2cc(F)c(F)cc12)c1ncn(-c2ccccc2)n1 [Compound 110, N-(5,6-difluoro-1H-indol-3-yl)-1-phenyl-1H-1,2,4-triazole-3-carboxamide]",0.04 to 0.2 µM
10,"O=C(Nc1c[nH]c2cc(F)ccc12)c1ccn(Cc2ccc(C(F)(F)F)cc2)n1 [Compound 103, N-(6-fluoro-1H-indol-3-yl)-1-(4-(trifluoromethyl)benzyl)-1H-pyrazole-3-carboxamide]",0.2 to 1 µM
11,"O=C(Nc1c[nH]c2cc(Cl)ccc12)c1cnn(Cc2ccc(C(F)(F)F)cc2)c1 [Compound 102, N-(6-chloro-1H-indol-3-yl)-1-[[4-(trifluoromethyl)phenyl]methyl]pyrazole-4-carboxamide]",0.2 to 1 µM
12,"O=C(Nc1c[nH]c2c(F)cncc12)c1cnn(Cc2ccc(C(F)(F)F)cc2)c1 [Compound 128, N-(7-fluoro-1H-pyrrolo[3,2-c]pyridin-3-yl)-1-(4-(trifluoromethyl)benzyl)-1H-pyrazole-4-carboxamide]",0.2 to 1 µM
13,"N#Cc1cccc(-c2cc(C(=O)Nc3c[nH]c4cc(F)c(F)cc34)no2)c1 [Compound 123, 5-(3-cyanophenyl)-N-(5,6-difluoro-1H-indol-3-yl)isoxazole-3-carboxamide]",0.2 to 1 µM
14,"O=C(Nc1c[nH]c2cc(F)c(F)cc12)c1csc(Cc2ccccc2)n1 [Compound 112, 2-benzyl-N-(5,6-difluoro-1H-indol-3-yl)-1,3-thiazole-4-carboxamide]",1 to 5 µM
15,"O=C(Nc1c[nH]c2ccccc12)c1cn(Cc2ccc(C(F)(F)F)cn2)cn1 [Compound 130, N-(1H-indol-3-yl)-1-((5-(trifluoromethyl)pyridin-2-yl)methyl)-1H-imidazole-4-carboxamide]",1 to 5 µM
16,"O=C(Nc1c[nH]c2ccccc12)c1cncn1Cc1ccc(C(F)(F)F)c(Cl)c1 [Compound 132, 1-(3-chloro-4-(trifluoromethyl)benzyl)-N-(1H-indol-3-yl)-1H-imidazole-5-carboxamide]",1 to 5 µM
17,"Cc1cncc2c(NC(=O)c3cnn(Cc4ccc(C(F)(F)F)cc4)c3)c[nH]c12 [Compound 125, N-(7-methyl-1H-pyrrolo[3,2-c]pyridin-3-yl)-1-(4-(trifluoromethyl)benzyl)-1H-pyrazole-4-carboxamide]",1 to 5 µM

# The remaining lines, values ahead:
row,EC50,Structure (SMILES)
1,0.04 to 0.2 µM,"O=C(Nc1c[nH]c2ccc(Oc3ccccc3)cc12)c1cnn(Cc2ccc(C(F)(F)F)cc2)c1 [Compound 154, N-(5-phenoxy-1H-indol-3-yl)-1-(4-(trifluoromethyl)benzyl)-1H-pyrazole-4-carboxamide]"
2,0.2 to 1 µM,"O=C(Nc1c[nH]c2cc(F)c(Cl)cc12)c1cc(Cc2ccc(C(F)(F)F)cc2)n(C(F)F)n1 [Compound 166, N-(5-chloro-6-fluoro-1H-indol-3-yl)-1-(difluoromethyl)-5-(4-(trifluoromethyl)benzyl)-1H-pyrazole-3-carboxamide]"
3,0.2 to 1 µM,"O=C(Nc1c[nH]c2ccccc12)c1cn(-c2ccc(C(F)(F)F)c(Cl)c2)cn1 [Compound 135, 1-(3-chloro-4-(trifluoromethyl)phenyl)-N-(1H-indol-3-yl)-1H-imidazole-4-carboxamide]"
4,0.2 to 1 µM,"Cn1nc(C(=O)Nc2c[nH]c3cc(F)c(F)cc23)cc1-c1ccccc1 [Compound 172, N-(5,6-difluoro-1H-indol-3-yl)-1-methyl-5-phenyl-1H-pyrazole-3-carboxamide]"
5,5 to 100 µM,"O=C(Nc1c[nH]c2cc(F)c(F)cc12)c1cc(-c2ccncc2)[nH]n1 [Compound 176, N-(5,6-difluoro-1H-indol-3-yl)-5-(pyridin-4-yl)-1H-pyrazole-3-carboxamide]"
6,5 to 100 µM,"CC(C)(O)CCc1ncc(-n2cc(C(=O)Nc3c[nH]c4cc(F)c(F)cc34)nn2)cc1F [Compound 179, N-(5,6-difluoro-1H-indol-3-yl)-1-[5-fluoro-6-(3-hydroxy-3-methylbutyl)pyridin-3-yl]-1H-1,2,3-triazole-4-carboxamide]"
7,0.2 to 1 µM,"O=C(Nc1c[nH]c2cc(F)c(F)cc12)c1cc(-c2ccc(Cl)cc2)no1 [Compound 171, 3-(4-chlorophenyl)-N-(5,6-difluoro-1H-indol-3-yl)isoxazole-5-carboxamide]"
8,0.2 to 1 µM,"O=C(Nc1c[nH]c2cc(F)c(F)cc12)c1cc(Cc2ccc(C(F)(F)F)cc2)[nH]n1 [Compound 145, N-(5,6-difluoro-1H-indol-3-yl)-5-(4-(trifluoromethyl)benzyl)-1H-pyrazole-3-carboxamide]"
9,0.04 to 0.2 µM,"Cc1cc(Cn2cc(C(=O)Nc3c[nH]c4ccc(Cl)cc34)cn2)cnc1OCC(F)(F)F [Compound 160, N-(5-chloro-1H-indol-3-yl)-1-((5-methyl-6-(2,2,2-trifluoroethoxy)pyridin-3-yl)methyl)-1H-pyrazole-4-carboxamide]"
10,5 to 100 µM,"O=C(Nc1c[nH]c2ccccc12)c1cn(-c2cnc(OCC(F)(F)F)c(F)c2)nn1 [Compound 157, 1-(5-fluoro-6-(2,2,2-trifluoroethoxy)pyridin-3-yl)-N-(1H-indol-3-yl)-1H-1,2,3-triazole-4-carboxamide]"
11,0.2 to 1 µM,"O=C(Nc1c[nH]c2cc(F)c(F)cc12)c1cnn(CCOc2cncc(C(F)(F)F)c2)c1 [Compound 161, N-(5,6-difluoro-1H-indol-3-yl)-1-(2-((5-(trifluoromethyl)pyridin-3-yl)oxy)ethyl)-1H-pyrazole-4-carboxamide]"
12,0.2 to 1 µM,"CC(C)n1cc(-c2ccc3[nH]cc(NC(=O)c4cn(-c5ccc(C(F)(F)F)cc5)cn4)c3c2)cn1 [Compound 139, N-(5-(1-isopropyl-1H-pyrazol-4-yl)-1H-indol-3-yl)-1-(4-(trifluoromethyl)phenyl)-1H-imidazole-4-carboxamide]"
13,0.2 to 1 µM,"O=C(Nc1c[nH]c2cc(F)c(F)cc12)c1cc(-c2ccc(F)cc2F)on1 [Compound 170, N-(5,6-difluoro-1H-indol-3-yl)-5-(2,4-difluorophenyl)isoxazole-3-carboxamide]"
14,1 to 5 µM,"O=C(Nc1c[nH]c2cc(F)c(F)cc12)c1nn(Cc2ccc(C(F)(F)F)cc2)c(=O)[nH]1 [Compound 142, N-(5,6-difluoro-1H-indol-3-yl)-5-oxo-1-(4-(trifluoromethyl)benzyl)-4,5-dihydro-1H-1,2,4-triazole-3-carboxamide]"
15,1 to 5 µM,"CC(C)(C)OC(=O)N1CCC(n2cc(C(=O)Nc3c[nH]c4cc(F)c(F)cc34)nn2)CC1 [Compound 169, tert-butyl 4-(4-((5,6-difluoro-1H-indol-3-yl)carbamoyl)-1H-1,2,3-triazol-1-yl)piperidine-1-carboxylate]"
16,0.2 to 1 µM,"O=C(Nc1c[nH]c2cc(F)c(F)cc12)c1cc(-c2cc(F)cc(F)c2)[nH]n1 [Compound 173, N-(5,6-difluoro-1H-indol-3-yl)-5-(3,5-difluorophenyl)-1H-pyrazole-3-carboxamide]"
